US7396645B1, “Cholestasis signature” (priority 2002, dated 2008)
Like-named read-outs stand apart in the source and are kept apart here. Marks after values point to notes of the source that are not given here.

Legend:
[1] = system: Cholestasis Signature
Description: (§1) After determination of the MTD and FED for a compound, each compound was dissolved in a vehicle for administration on day 1 of the study (additional daily doses were stored as frozen aliquots from this initial formulation). Each compound was administered to three individual male Sprague-Dawley rats for each of the two doses (MTD and FED) for one of four different times (0.25 day, 1 day, 3 days, and 5 days), yielding a total of up to 24 animals per compound study. Vehicle choice was based on solubility of the compound, effect of food on adsorption, and the vehicles used in the literature reports examined during the FED selection investigations, described above. Generally, the route and vehicle in which the FED was defined are used. When there was a choice of routes and vehicles, oral routes were chosen over injection routes. Many compounds, especially oncolytics, are only administerable intravenously. In such cases, the compound was administered as an intravenous formulation into the tail vein. Orally administered compounds were given dissolved in either water, 1% carboxymethycellulose (CMC) or corn oil. Intravenously and intraperitoneally administered compounds were given in 0.9% saline. Subcutaneously administered compounds were given in corn oil. Animal body weights were determined at 1 day and, where appropriate, at 4 days, before necropsy, and clinical observations were made on a daily basis. Control animals were dosed with vehicle only. Three male animals were used for each dose and time combination used for the compound treatment.
(§2) Tissue Harvest and Handling: After the allocated treatment time, the tissues from the animals were harvested. […] All the tissues collected were divided to provide samples for histopathological analyses, and the remainder of each tissue was then snap-frozen. […] The parameters were measured using a Hitachi-911 clinical chemistry analysis instrument according to the manufacturer's instructions. The following blood constituents were measured: Blood Urea Nitrogen (BUN), Creatinine (CRE), Glucose (GLU), Alanine Transaminase (ALT), Aspartate Aminotrans-ferase (AST), Alkaline Phosphatase (ALP), Total Bilirubin (TBI), Sodium (SOD), Potassium (POT), Chloride (CHL), Phosphorus (PHO), Total Protein (TPR), Albumin (ALB), Cholesterol (CHO), Creatine Phosphokinase (CPK), Lactate Dehydrogenase (LDH), Carbon Dioxide (CO2), Uric Acid (UA), and Lipase. […] The parameters were measured using a Baker 9000 blood cell analysis instrument according to the manufactures instructions. The following blood constituents were measured: Leukocyte count (WBC), Differential Leukocyte counts, Erythrocyte count (RBC), Hemoglobin concentration (HGB), Hematocrit (HCT), Mean Corpuscular Volume (MCV), Mean Corpuscular Hemoglobin (MCH), Mean Corpuscular Hemoglobin Concentration (MCC), Thrombocyte Count (PLC). Histopathology: Histopathological analyses of hematoxylin and eosin-stained tissue sections were performed and peer-reviewed by board-certified (Diplomate, American College of Veterinary Pathologists) veterinary pathologists. Preparation of Enriched mRNA: Punch Biopsies were Taken from the Frozen Tissues and were completely homogenized before being processed using the MagNA Pure robot. (Roche Diagnostics Corp., Indianapolis, Ind.) in combination with the MagNA Pure LC RNA Isolation kit II (Roche Diagnostics Corp). The amount of lysis buffer was adjusted to allow 1 ml per 50 mg for liver tissue, or 1 ml per 80 mg for all other tissues. After complete homogenization and before loading of the samples into the 32-well MagNA Pure plate, the samples were syringed 5-6 times using a 20-gauge 3-ml syringe to ensure a smooth solution for robotic processing. Tissue sample processing was performed in duplicate wells (loading 150 μl of homogenized sample and 150 μl of additional lysis buffer to each well) of the MagNA Pure LC, which is programmed to extract mRNA using oligo-dT selection technology into a final elution volume of 100 μl.

[2] = system: livers of rats; conditions: for bile duct hyperplasia: in most animals
Description: as §1, §2

[3] = system: male Sprague-Dawley rats; conditions: rat
Text: Compound dosing was based on the acute dose LD50s recorded in published reference or literature sources. […] The MTD (maximum tolerated dose) was then selected as the dose at which the animals […] 5-10% body weight during the 5-day range finding study. […] In addition, the clinical observations must show no or mild clinical signs during the whole of the range-finding study. At the next highest dose, signs and symptoms of adverse effects and exceeding those of the MTD should be seen to occur. Should these criteria not be met, the range-finding study is repeated using a modified dose range.
as §1
Tissue Harvest and Handling: After the allocated treatment time, the tissues from the animals were harvested. […] All the tissues collected were divided to provide samples for histopathological analyses, and the remainder of each tissue was then snap-frozen. […] The parameters were measured using a Hitachi-911 clinical chemistry analysis instrument according to the manufacturer's instructions. The following blood constituents were measured: Blood Urea Nitrogen (BUN), Creatinine (CRE), Glucose (GLU), Alanine Transaminase (ALT), Aspartate Aminotrans-ferase (AST), Alkaline Phosphatase (ALP), Total Bilirubin (TBI), Sodium (SOD), Potassium (POT), Chloride (CHL), Phosphorus (PHO), Total Protein (TPR), Albumin (ALB), Cholesterol (CHO), Creatine Phosphokinase (CPK), Lactate Dehydrogenase (LDH), Carbon Dioxide (CO2), Uric Acid (UA), and Lipase. […] The parameters were measured using a Baker 9000 blood cell analysis instrument according to the manufactures instructions. The following blood constituents were measured: Leukocyte count (WBC), Differential Leukocyte counts, Erythrocyte count (RBC), Hemoglobin concentration (HGB), Hematocrit (HCT), Mean Corpuscular Volume (MCV), Mean Corpuscular Hemoglobin (MCH), Mean Corpuscular Hemoglobin Concentration (MCC), Thrombocyte Count (PLC). Histopathology: Histopathological analyses of hematoxylin and eosin-stained tissue sections were performed and peer-reviewed by board-certified (Diplomate, American College of Veterinary Pathologists) veterinary pathologists.

[4] = rat liver expression data vs Cholestasis Signature, maximum score of training treatments normalised to 100, dose and time not given
[5] = rat liver histopathology, training-set treatments
[6] = 16 mg/kg orally in corn oil, 3 days, vs vehicle control, average of 3 animals
[7] = 386 mg/kg orally in corn oil, 3 days, vs vehicle control, average of 3 animals
[8] = 81 mg/kg orally in corn oil, 5 days, vs vehicle control, average of 3 animals

Cc1ccc(C)c(OCCCC(C)(C)C(=O)O)c1 [GEMFIBROZIL, 5-(2,5-dimethylphenoxy)-2,2-dimethylpentanoic acid]
Sequence Projection Score (SPS) ([1]; rat, in vivo): 28*
increased hepatocyte enlargement and increased eosinophilic granular cytoplasm ([2]; rat, in vivo): mild to severe
nuclear/cytoplasmic condensation (apoptosis) and/or necrosis in liver ([2]; rat, in vivo): mild to moderate
raised serum levels of ALP and TBI compared with vehicle-treated control animals ([3]; in vivo, po): at least 2 fold
Fold change in serum alkaline phosphatase ([3]; in vivo, po, 700 mg/kg): 2.1 fold

O=NN(CCCl)C(=O)NCCCl [CARMUSTINE, 1,3-bis(2-chloroethyl)-1-nitrosourea]
Sequence Projection Score (SPS) [1, 4]: 69*
increased hepatocyte enlargement and increased eosinophilic granular cytoplasm [2, 5]: mild to severe
nuclear/cytoplasmic condensation (apoptosis) and/or necrosis in liver [2, 5]: mild to moderate
bile duct hyperplasia [2, 5]: moderate
Fold change in serum alkaline phosphatase [3, 6]: 1.7 fold
Fold change in serum alkaline phosphatase and total bilirubin [3, 6]: 8.1 fold
Fold change in serum total bilirubin [3, 6]: 4.6 fold

c1ccc2c(c1)Nc1ccccc1S2 [PHENOTHIAZINE, 2,3:5,6-dibenzo-1,4-thiazine]
Sequence Projection Score (SPS) [1, 4]: 49*
steatosis [2, 5]: moderate to very severe
Fold change in serum alkaline phosphatase [3, 7]: −1.1 fold
Fold change in serum alkaline phosphatase and total bilirubin [3, 7]: 3.4 fold
Fold change in serum total bilirubin [3, 7]: 3.7 fold

Nc1ccc(Cc2ccc(N)cc2)cc1 [4,4′-DIAMINODIPHENYLMETHANE, 4,4′-diaminodiphenylmethane]
Sequence Projection Score (SPS) [1, 4]: 77**
bile duct hyperplasia [2, 5]: moderate
Fold change in serum alkaline phosphatase [3, 8]: 1.6 fold
Fold change in serum alkaline phosphatase and total bilirubin [3, 8]: 7.7 fold
Fold change in serum total bilirubin [3, 8]: 4.9 fold
